# Laboratory results reported in patent publication US20230365592A1 (Agios Pharmaceuticals, Inc., priority 2022, published 2023).
# Biological target: T1, human PAH with the R408W mutation (Homo sapiens, UniProt P00439, R408W)
# T1 construct: expressed in transfected cells
# T1 sequence (P00439 1-452 R408W): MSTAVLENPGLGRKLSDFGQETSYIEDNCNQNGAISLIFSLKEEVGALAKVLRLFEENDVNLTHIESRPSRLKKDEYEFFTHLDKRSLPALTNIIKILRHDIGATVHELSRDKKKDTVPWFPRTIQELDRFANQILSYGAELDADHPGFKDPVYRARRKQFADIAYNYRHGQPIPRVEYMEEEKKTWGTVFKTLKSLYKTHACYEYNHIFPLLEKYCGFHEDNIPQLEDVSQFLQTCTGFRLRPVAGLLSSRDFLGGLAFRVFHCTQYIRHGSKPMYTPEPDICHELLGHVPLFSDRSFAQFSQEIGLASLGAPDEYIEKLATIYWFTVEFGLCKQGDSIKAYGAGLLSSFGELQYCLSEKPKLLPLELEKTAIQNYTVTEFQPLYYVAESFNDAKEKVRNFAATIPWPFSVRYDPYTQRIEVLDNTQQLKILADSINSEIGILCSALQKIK
# Assay: Cell Based Phenylalanine Flux Assay;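 also: after compound treatment, cells received sepiapterin plus isotope-labelled Phenylalanine for 4 hours, then labelled Tyrosine in the medium was quantified, 10-point 2-fold dilution series run in duplicate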
# Details: A375 cells expressing R408W PAH; 24 hrs with compound, then 20 µM sepiapterin and 800 µM 13C9,15N-Phenylalanine for 4 hours; 13C-Tyrosine by LC-MS; average where tested multiple times; read-out: AC50
row,SMILES,AC50 [µM]
1,O=C(c1cnc(-c2ncccn2)o1)N1CCc2[nH]cnc2C1c1cc2c(F)cccn2n1 (stereo not drawn),> 5
2,Cc1cccc2cc(C3c4nc[nH]c4CCN3c3nnc(-c4cnccn4)o3)nn12 (stereo not drawn),> 5
3,Cc1cccc2cc(C3c4nc[nH]c4CCN3c3nnc(C4CCC4)o3)nn12 (stereo not drawn),> 5
4,c1cc(C2CC2)c2cc(C3c4nc[nH]c4CCN3c3nnc(-c4ccncn4)o3)nn2c1 (stereo not drawn),> 5
5,Cc1cccn2nc(C3c4nc[nH]c4CCN3c3nnc(-c4ccncn4)o3)cc12 (stereo not drawn),> 5
6,Cn1cc(-c2ncc(C(=O)N3CCc4[nH]cnc4C3c3cc4c(F)cccn4n3)o2)cn1 (stereo not drawn),> 5
7,CN(C)CCc1ccc2c(C(=O)N3CCc4[nH]cnc4C3c3cc4cccc(C(F)(F)F)n4n3)cnn2c1 (stereo not drawn),> 5
8,CC1(c2nnc(N3CCc4[nH]cnc4C3c3cc4c(C(F)(F)F)cccn4n3)o2)CC1 (stereo not drawn),1 to 5
9,FC(F)c1cccn2nc(C3c4nc[nH]c4CCN3c3nnc(C4CC(F)(F)C4)o3)cc12 (stereo not drawn),1 to 5
10,Fc1cccn2nc(C3c4nc[nH]c4CCN3c3nnc(C4CC(F)(F)C4)o3)cc12 (stereo not drawn),1 to 5
11,FC1(F)CC(c2nnc(N3CCc4[nH]cnc4C3c3cc4c(C(F)(F)F)cccn4n3)o2)C1 (stereo not drawn),1 to 5
12,Cc1nnc(N2CCc3[nH]cnc3C2c2cc3c(OC(F)F)cccn3n2)o1 (stereo not drawn),1 to 5
13,CC1(c2nnc(N3CCc4[nH]cnc4C3c3cc4c(C(F)F)cccn4n3)o2)CC1 (stereo not drawn),1 to 5
14,Cn1cc(-c2nnc(N3CCc4[nH]cnc4C3c3cc4c(C(F)F)cccn4n3)o2)cn1 (stereo not drawn),> 5
15,O=C(c1nc2ccccc2s1)N1CCc2[nH]cnc2C1c1cc2c(C(F)(F)F)cccn2n1 (stereo not drawn),1 to 5
16,FC1(F)CC(c2nnc(N3CCc4[nH]cnc4C3c3cc4c(C5CC5)cccn4n3)o2)C1 (stereo not drawn),1 to 5
17,Nc1cnc(N2CCc3[nH]cnc3C2c2cc3cccc(C(F)(F)F)n3n2)nc1 (stereo not drawn),> 5
18,Nc1cnc(N2CCc3[nH]cnc3C2c2cc3cccc(Cl)n3n2)nc1 (stereo not drawn),1 to 5
19,Clc1cccc2cc(C3c4nc[nH]c4CCN3c3nnc(C4CCC4)o3)nn12 (stereo not drawn),1 to 5
20,Fc1cccc2cc(C3c4nc[nH]c4CCN3c3nnc(C(F)(F)F)o3)nn12 (stereo not drawn),1 to 5
21,Clc1cccn2nc(C3c4nc[nH]c4CCN3c3nnc(-c4ncccn4)o3)cc12 (stereo not drawn),1 to 5

# More lines, now with the values ahead:
row,AC50 [µM],SMILES
1,> 5,Cn1ccc(-c2ncc(C(=O)N3CCc4[nH]cnc4C3c3cc4ccccn4n3)o2)n1 (stereo not drawn)
2,> 5,Cc1c(-c2ncc(C(=O)N3CCc4[nH]cnc4C3c3cc4ccccn4n3)o2)cnn1C (stereo not drawn)
3,1 to 5,CC(C)(F)c1nnc(C(=O)N2CCc3[nH]cnc3C2c2cc3ccccn3n2)o1 (stereo not drawn) [listing 1 of 2 here]
4,> 5,Cc1cccn2nc(C3c4nc[nH]c4CCN3C(=O)c3nnc(-c4cn[nH]c4)o3)cc12 (stereo not drawn) [listing 1 of 2 here]
5,> 5,O=C(c1nnc(-c2ccc(C(F)(F)F)cn2)o1)N1CCc2[nH]cnc2C1c1cc2ccccn2n1 (stereo not drawn)
6,> 5,c1cncc(-c2nnc(N3CCc4[nH]cnc4C3c3cc4ccccn4n3)o2)c1 (stereo not drawn)
7,> 5,c1ccn2nc(C3c4nc[nH]c4CCN3c3nnc(-c4ccncn4)o3)cc2c1 (stereo not drawn)
8,> 5,Cn1cc(-c2nc(C3CC3)c(C(=O)N3CCc4[nH]cnc4C3c3cc4ccccn4n3)o2)cn1 (stereo not drawn)
9,1 to 5,Cn1ncc(C(=O)N2CCc3[nH]cnc3C2c2cc3ccccn3n2)c1C(F)F (stereo not drawn)
10,1 to 5,Cn1ncnc1C(=O)N1CCc2[nH]cnc2C1c1cc2ccccn2n1 (stereo not drawn)
11,1 to 5,Cn1cc(-c2ncc(C(=O)N3CCc4[nH]cnc4C3c3cc4ccccn4n3)o2)cn1 (stereo not drawn)
12,1 to 5,O=C(c1nnc(-c2cn[nH]c2)o1)N1CCc2[nH]cnc2C1c1cc2ccccn2n1 (stereo not drawn)
13,> 5,CC(C)(F)c1nnc(N2CCc3[nH]cnc3C2c2cc3c(C(F)(F)F)cccn3n2)o1 (stereo not drawn)
14,> 5,Cc1cccn2nc(C3c4nc[nH]c4CCN3c3nnc(C(C)(C)F)o3)cc12 (stereo not drawn)
15,1 to 5,CC(C)(F)c1nnc(C(=O)N2CCc3[nH]cnc3C2c2cc3ccccn3n2)o1 (stereo not drawn) [listing 2 of 2 here]
16,> 5,CC(C)(F)c1nnc(N2CCc3[nH]cnc3C2c2cc3ccccn3n2)o1 (stereo not drawn)
17,1 to 5,O=C(C1CN(c2ccccn2)C1)N1CCc2[nH]cnc2C1c1cc2ccccn2n1 (stereo not drawn)
18,> 5,CC(C)(F)c1nnc(N2CCc3[nH]cnc3C2c2cc3c(C(F)F)cccn3n2)o1 (stereo not drawn)
19,1 to 5,O=C(c1ncco1)N1CCc2[nH]cnc2C1c1cc2c(F)cccn2n1 (stereo not drawn)
20,1 to 5,Cc1nnc(C(=O)N2CCc3[nH]cnc3C2c2cc3c(F)cccn3n2)s1 (stereo not drawn)
21,1 to 5,Cc1cccn2nc(C3c4nc[nH]c4CCN3C(=O)c3nnc(-c4cn[nH]c4)o3)cc12 (stereo not drawn) [listing 2 of 2 here]
22,> 5,Nc1cnc(N2CCc3[nH]cnc3C2c2cc3ccccn3n2)nc1 (stereo not drawn)
23,1 to 5,O=C(c1nccs1)N1CCc2[nH]cnc2C1c1cc2ccccn2n1 (stereo not drawn)
24,1 to 5,O=C(c1ncco1)N1CCc2[nH]cnc2C1c1cc2ccccn2n1 (stereo not drawn)
